# Values quoted from earlier work, collected in patent US6537592B2, “Extracts of kava-kava” (Kava Pharmaceuticals, Inc., priority 2000, dated 2003).
# Conditions: at 21° C., water
smiles,measurement,value
COC1=CC(=O)O[C@@H](/C=C/c2ccccc2)C1 [kawain],maximum solubility,about 2.2 mg/100 ml water
